Consider three molecules from patent US4533675A (priority 1984, dated 1985).

One may read the LD50 as the dose at which mortality reaches 50%.

The conditions of data set [1]: ip injection, data from Brossi et al., J. Med. Chem., 26:1365 (1983); cited from earlier work.
The test system of the next data set is tubulin protein. Description: Tubulin binding in vitro.
A short description of data set [2]: LD50 in mice after ip injection. Type of data set: in vivo.

Like-named read-outs stand apart in the source and are kept apart here.

Consider `COc1cc2c(c(OC)c1OC)-c1ccc(OC)c(=O)cc1[C@@H](NC(C)=O)CC2` [Colchicine, colchicine], for which the “LD50 in Mice after ip inj” value in data set [1] is recorded as 3.0 mg/kg.

In the case of `CCOC(=O)N[C@H]1CCc2cc(OC)c(OC)c(OC)c2-c2ccc(SC)c(=O)cc21` [Et H SMe], in the data set on tubulin protein, the “Tubulin Binding in vitro” value worked out at 96. In addition, in data set [2], the “LD50 in Mice after ip inj” value was determined as 77.1 mg/kg. Regarding `COc1cc2c(c(OC)c1OC)-c1ccc(SC)c(=O)cc1[C@@H](NC(=O)Oc1ccccc1)CC2` [Ph H SMe, N-Phenoxycarbonyl-deacetylthiocolchicine], the LD50 in data set [2] (mouse, in vivo, read-out: LD50 in Mice after ip inj) came to 50 mg/kg.
